#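 Each compound was tested at five concentrations against cells in 96-well plates for 48 hours. TGI is the concentration that stops growth completely.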
# Columns and labels:
# Experiment in all cases: growth of human tumour cells (NCI), 48 h
# [1] = test system: 786-0 renal
# [2] = test system: A498 renal
# [3] = test system: A549 NSCLC
# [4] = test system: ACHN renal
# [5] = test system: BT-549 breast
# [6] = test system: CAKI-1 renal
# [7] = test system: CCRF-CEM leukemia
# [8] = test system: COLO 205 colon
# [9] = test system: DU-145 prostate
# [10] = test system: EKVX NSCLC
# [11] = test system: HCT-116 colon
# [12] = test system: HCT-15 colon
# [13] = test system: HL-60(TB) leukemia
# [14] = test system: HOP-62 NSCLC
# [15] = test system: HOP-92 NSCLC
# [16] = test system: HS 578T breast
# [17] = test system: HT29 colon
# [18] = test system: IGROV1 ovarian
# [19] = test system: K-562 leukemia
# [20] = test system: KM12 colon
# [21] = test system: LOX IMVI melanoma
# [22] = test system: M14 melanoma
# [23] = test system: MALME-3M melanoma
# [24] = test system: MDA-MB-231 breast
# [25] = test system: MDA-MB-435
# [26] = test system: MDA-N
# [27] = test system: MOLT-4 leukemia
# [28] = test system: NCI-H226 lung
# [29] = test system: NCI-H23 lung
# [30] = test system: NCI-H460 lung
# [31] = test system: NCI-H522 lung
# [32] = test system: NCI/ADR-RES ovarian
# [33] = test system: OVCAR-3 ovarian
# [34] = test system: OVCAR-5 ovarian
# [35] = test system: OVCAR-8 ovarian
# [36] = test system: PC-3 prostate
# [37] = test system: RPMI-8226 leukemia
# [38] = test system: RXF 393 renal
# [39] = test system: SF-268 CNS
# [40] = test system: SF-295 CNS
# [41] = test system: SF-539 CNS
# [42] = test system: SK-MEL-2 melanoma
# [43] = test system: SK-MEL-28 melanoma
# [44] = test system: SK-MEL-5 melanoma
# [45] = test system: SK-OV-3 ovarian
# [46] = test system: SN12C renal
# [47] = test system: SNB-19 CNS
# [48] = test system: SNB-75 CNS
# [49] = test system: SW-620 colon
# [50] = test system: T-47D breast
# [51] = test system: TK-10 renal
# [52] = test system: U251 CNS
# [53] = test system: UACC-257 melanoma
# [54] = test system: UACC-62 melanoma
# [55] = test system: UO-31 renal
# [56] = test system: MCF7 breast
# [57] = test system: OVCAR-4 ovarian
# [58] = test system: SR leukemia
# [59] = test system: HCC-2998 colon
smiles,measurement,setting,value
Cn1c(=O)n2n(c1=O)C1C(=CC2)C2C=CC1n1c(=O)n(C)c(=O)n12 (centres undefined),TGI,[1],> 100 µM
same,TGI,[2],> 100 µM
same,TGI,[3],> 100 µM
same,TGI,[4],> 100 µM
same,TGI,[5],> 100 µM
same,TGI,[6],> 100 µM
same,TGI,[7],> 100 µM
same,TGI,[8],> 100 µM
same,TGI,[9],> 100 µM
same,TGI,[10],> 100 µM
same,TGI,[11],> 100 µM
same,TGI,[12],> 100 µM
same,TGI,[13],> 100 µM
same,TGI,[14],> 100 µM
same,TGI,[15],> 100 µM
same,TGI,[16],> 100 µM
same,TGI,[17],> 100 µM
same,TGI,[18],> 100 µM
same,TGI,[19],> 100 µM
same,TGI,[20],> 100 µM
same,TGI,[21],> 100 µM
same,TGI,[22],> 100 µM
same,TGI,[23],> 100 µM
same,TGI,[24],> 100 µM
same,TGI,[25],> 100 µM
same,TGI,[26],> 100 µM
same,TGI,[27],> 100 µM
same,TGI,[28],> 100 µM
same,TGI,[29],> 100 µM
same,TGI,[30],> 100 µM
same,TGI,[31],> 100 µM
same,TGI,[32],> 100 µM
same,TGI,[33],> 100 µM
same,TGI,[34],> 100 µM
same,TGI,[35],> 100 µM
same,TGI,[36],> 100 µM
same,TGI,[37],> 100 µM
same,TGI,[38],> 100 µM
same,TGI,[39],> 100 µM
same,TGI,[40],> 100 µM
same,TGI,[41],> 100 µM
same,TGI,[42],> 100 µM
same,TGI,[43],> 100 µM
same,TGI,[44],> 100 µM
same,TGI,[45],> 100 µM
same,TGI,[46],> 100 µM
same,TGI,[47],> 100 µM
same,TGI,[48],> 100 µM
same,TGI,[49],> 100 µM
same,TGI,[50],> 100 µM
same,TGI,[51],> 100 µM
same,TGI,[52],> 100 µM
same,TGI,[53],> 100 µM
same,TGI,[54],> 100 µM
same,TGI,[55],> 100 µM
CN1C(C(=O)Nc2ccccn2)=C(O)c2ccccc2S1(=O)=O,TGI,[1],> 100 µM
same,TGI,[3],> 100 µM
same,TGI,[4],> 100 µM
same,TGI,[5],> 100 µM
same,TGI,[6],> 100 µM
same,TGI,[7],> 100 µM
same,TGI,[8],> 100 µM
same,TGI,[9],> 100 µM
same,TGI,[10],> 100 µM
same,TGI,[11],> 100 µM
same,TGI,[12],> 100 µM
same,TGI,[13],> 100 µM
same,TGI,[14],> 100 µM
same,TGI,[17],> 100 µM
same,TGI,[20],> 100 µM
same,TGI,[21],> 100 µM
same,TGI,[22],> 100 µM
same,TGI,[23],> 100 µM
same,TGI,[56],> 100 µM
same,TGI,[25],> 100 µM
same,TGI,[26],> 100 µM
same,TGI,[27],> 100 µM
same,TGI,[28],> 100 µM
same,TGI,[29],> 100 µM
same,TGI,[31],> 100 µM
same,TGI,[32],> 100 µM
same,TGI,[33],> 100 µM
same,TGI,[57],> 100 µM
same,TGI,[34],> 100 µM
same,TGI,[35],> 100 µM
same,TGI,[36],> 100 µM
same,TGI,[37],> 100 µM
same,TGI,[38],> 100 µM
same,TGI,[39],> 100 µM
same,TGI,[40],> 100 µM
same,TGI,[41],> 100 µM
same,TGI,[42],> 100 µM
same,TGI,[43],> 100 µM
same,TGI,[44],> 100 µM
same,TGI,[45],> 100 µM
same,TGI,[46],> 100 µM
same,TGI,[47],> 100 µM
same,TGI,[48],> 100 µM
same,TGI,[58],> 100 µM
same,TGI,[49],> 100 µM
same,TGI,[50],> 100 µM
same,TGI,[51],> 100 µM
same,TGI,[52],> 100 µM
same,TGI,[53],> 100 µM
same,TGI,[54],> 100 µM
same,TGI,[55],> 100 µM
CCCCN=C(OC1C=CCCC1)SC (centres undefined),TGI,[1],> 100 µM
same,TGI,[2],> 100 µM
same,TGI,[3],> 100 µM
same,TGI,[4],> 100 µM
same,TGI,[5],> 100 µM
same,TGI,[7],> 100 µM
same,TGI,[8],> 100 µM
same,TGI,[9],> 100 µM
same,TGI,[10],> 100 µM
same,TGI,[59],> 100 µM
same,TGI,[11],> 100 µM
same,TGI,[12],> 100 µM
same,TGI,[13],> 100 µM
same,TGI,[14],> 100 µM
same,TGI,[15],> 100 µM
same,TGI,[17],> 100 µM
same,TGI,[18],> 100 µM
same,TGI,[19],> 100 µM
same,TGI,[22],> 100 µM
same,TGI,[23],> 100 µM
same,TGI,[56],> 100 µM
same,TGI,[24],> 100 µM
same,TGI,[25],> 100 µM
same,TGI,[26],> 100 µM
same,TGI,[27],> 100 µM
same,TGI,[28],> 100 µM
same,TGI,[29],> 100 µM
same,TGI,[32],> 100 µM
same,TGI,[33],> 100 µM
same,TGI,[57],> 100 µM
same,TGI,[34],> 100 µM
same,TGI,[35],> 100 µM
same,TGI,[36],> 100 µM
same,TGI,[37],> 100 µM
same,TGI,[39],> 100 µM
same,TGI,[40],> 100 µM
same,TGI,[43],> 100 µM
same,TGI,[44],> 100 µM
same,TGI,[45],> 100 µM
same,TGI,[46],> 100 µM
same,TGI,[47],> 100 µM
same,TGI,[48],> 100 µM
same,TGI,[58],> 100 µM
same,TGI,[49],> 100 µM
same,TGI,[50],> 100 µM
same,TGI,[51],> 100 µM
same,TGI,[52],> 100 µM
same,TGI,[53],> 100 µM
same,TGI,[54],> 100 µM
same,TGI,[55],> 100 µM
NC(=S)N1N=C(c2ccc3c(c2)CCC3)CC1c1ccccc1 (centres undefined),TGI,[1],> 100 µM
same,TGI,[2],29.2 µM
same,TGI,[3],> 100 µM
same,TGI,[4],> 100 µM
same,TGI,[5],98.3 µM
same,TGI,[6],> 100 µM
same,TGI,[7],> 100 µM
same,TGI,[8],50.8 µM
same,TGI,[9],80.8 µM
same,TGI,[10],> 100 µM
same,TGI,[59],36.8 µM
same,TGI,[11],87.6 µM
same,TGI,[12],69.6 µM
same,TGI,[13],44.5 µM
same,TGI,[14],87 µM
same,TGI,[15],85.7 µM
same,TGI,[16],> 100 µM
same,TGI,[17],> 100 µM
same,TGI,[18],> 100 µM
same,TGI,[19],> 100 µM
same,TGI,[20],> 100 µM
same,TGI,[21],> 100 µM
same,TGI,[22],> 100 µM
same,TGI,[23],74.4 µM
same,TGI,[56],45.2 µM
same,TGI,[25],96.9 µM
same,TGI,[26],> 100 µM
same,TGI,[27],> 100 µM
same,TGI,[28],> 100 µM
same,TGI,[29],95.5 µM
same,TGI,[30],64.9 µM
same,TGI,[31],24.7 µM
same,TGI,[32],58.6 µM
same,TGI,[33],55.8 µM
same,TGI,[57],85.2 µM
same,TGI,[34],> 100 µM
same,TGI,[35],> 100 µM
same,TGI,[36],87.8 µM
same,TGI,[37],51.7 µM
same,TGI,[38],28 µM
same,TGI,[39],> 100 µM
same,TGI,[40],68.3 µM
same,TGI,[41],43 µM
same,TGI,[42],36.2 µM
same,TGI,[43],> 100 µM
same,TGI,[44],31.3 µM
same,TGI,[45],88.6 µM
same,TGI,[46],> 100 µM
same,TGI,[47],> 100 µM
same,TGI,[48],56.1 µM
same,TGI,[58],95.5 µM
same,TGI,[49],> 100 µM
same,TGI,[50],27.9 µM
same,TGI,[51],87.1 µM
same,TGI,[52],63.5 µM
same,TGI,[53],86.9 µM
same,TGI,[54],74.1 µM
same,TGI,[55],> 100 µM

# Source: PubChem BioAssay (NCI)
